Here are results for 28 substances from the OligoGym collection.

Several values for one entry are separate records, joined by “and”; a condition that tells them apart may be missing. Equal entries are not always repeated. HELM strings list units from the 5' end as sugar, base in round brackets, then linkage (d deoxyribose, r ribose, m 2'-O-methyl, p phosphodiester). Methylation of C is not given here. [moe] = 2'-O-(2-methoxyethyl) (MOE); [cEt] = constrained ethyl (cEt); [sp] = phosphorothioate linkage

This data set concerns the target HBV. The conditions noted are these: ASO.

Take “RNA1{[moe](A)[sp].[moe](G)[sp].[moe](C)[sp].d(G)[sp].d(A)[sp].d(A)[sp].d(G)[sp].d(T)[sp].d(G)[sp].d(C)[sp].d(A)[sp].d(C)[sp].[moe](A)[sp].[moe](C)[sp].[moe](G)[sp].[moe](G)}$$$$V2.0”: the target mRNA inhibition runs as follows: (HepG2, 0.0092593 µM) 11%; (HepG2, 0.0277778 µM) 34%; (HepG2, 0.07 µM) 79% and 70%; (HepG2, 0.0833333 µM) 66%; (HepG2, 0.25 µM) 87%.
“RNA1{[moe](A)[sp].[moe](G)[sp].[moe](G)[sp].[moe](A)[sp].[moe](G)[sp].d(T)[sp].d(T)[sp].d(C)[sp].d(C)[sp].d(G)[sp].d(C)[sp].d(A)[sp].d(G)[sp].d(T)[sp].[moe](A)[sp].[moe](T)}$$$$V2.0”: for the setting “HepG2, 0.07 µM”, the target mRNA inhibition was 62% and 48%.
Still for that read-out and setting: as for “RNA1{[moe](A)[sp].[moe](G)[sp].[moe](G)[sp].[moe](C)[sp].[moe](A)[sp].d(T)[sp].d(A)[sp].d(G)[sp].d(C)[sp].d(A)[sp].d(G)[sp].d(C)[sp].d(A)[sp].d(G)[sp].[moe](G)[sp].[moe](A)[sp].[moe](T)}$$$$V2.0”, the figure is 61% and 56%.
For the substance “RNA1{[moe](A)[sp].[moe](G)[sp].[moe](G)[sp].[moe](C)[sp].[moe](A)[sp].d(T)[sp].d(A)[sp].d(G)[sp].d(C)[sp].d(A)[sp].d(G)[sp].d(C)[sp].d(A)[sp].d(G)[sp].[moe](G)[sp].[moe](A)}$$$$V2.0”, the target mRNA inhibition is 9% (HepG2, 0.0092593 µM); 13% (HepG2, 0.0277778 µM); 66% and 56% (HepG2, 0.07 µM); 29% (HepG2, 0.0833333 µM); 51% (HepG2, 0.25 µM).
Regarding “RNA1{[moe](A)[sp].[moe](G)[sp].[moe](G)[sp].[moe](T)[sp].d(G)[sp].d(A)[sp].d(A)[sp].d(G)[sp].d(C)[sp].d(G)[sp].d(A)[sp].d(A)[sp].d(G)[sp].[moe](T)[sp].[moe](G)[sp].[moe](C)[sp].[moe](A)}$$$$V2.0”, for the setting “HepG2, 0.07 µM”, the target mRNA inhibition was 58% and 56%.
Same read-out and setting: as for “RNA1{[moe](A)[sp].[moe](G)[sp].[moe](G)[sp].d(A)[sp].d(G)[sp].d(T)[sp].d(T)[sp].d(C)[sp].d(C)[sp].d(G)[sp].d(C)[sp].d(A)[sp].d(G)[sp].[cEt](T)[sp].[cEt](A)[sp].[cEt](T)}$$$$V2.0”, the figure is 59% and 58%.
On the same count and under the same terms, as for “RNA1{[moe](A)[sp].[moe](G)[sp].[moe](G)[sp].d(T)[sp].d(G)[sp].d(A)[sp].d(A)[sp].d(G)[sp].d(C)[sp].d(G)[sp].d(A)[sp].d(A)[sp].[moe](G)[sp].[moe](T)[sp].[moe](G)[sp].[moe](C)[sp].[moe](A)}$$$$V2.0”, the figure is 77% and 71%; as for “RNA1{[moe](A)[sp].[moe](G)[sp].[moe](G)[sp].d(T)[sp].d(G)[sp].d(A)[sp].d(A)[sp].d(G)[sp].d(C)[sp].d(G)[sp].d(A)[sp].d(A)[sp].[moe](G)[sp].[moe](T)[sp].[moe](G)[sp].[moe](C)}$$$$V2.0”, 68% and 58%; as for “RNA1{[moe](A)[sp].[moe](G)[sp].[moe](T)[sp].[moe](T)[sp].[moe](C)[sp].d(C)[sp].d(G)[sp].d(C)[sp].d(A)[sp].d(G)[sp].d(T)[sp].d(A)[sp].d(T)[sp].d(G)[sp].[moe](G)[sp].[moe](A)}$$$$V2.0”, 61% and 40%.
The same measure, in the same setting: as for “RNA1{[moe](A)[sp].[moe](G)[sp].[moe](T)[sp].d(T)[sp].d(C)[sp].d(C)[sp].d(G)[sp].d(C)[sp].d(A)[sp].d(G)[sp].d(T)[sp].d(A)[sp].[moe](T)[sp].[moe](G)[sp].[moe](G)[sp].[moe](A)[sp].[moe](T)}$$$$V2.0”, the figure is 60% and 64%.
“RNA1{[moe](A)[sp].[moe](G)[sp].d(C)[sp].d(G)[sp].d(A)[sp].d(A)[sp].d(G)[sp].d(T)[sp].d(G)[sp].d(C)[sp].d(A)[sp].[moe](C)[sp].[moe](A)[sp].[moe](C)[sp].[moe](G)[sp].[moe](G)}$$$$V2.0”: the target mRNA inhibition runs as follows: (HepG2, 0.0092593 µM) 0%; (HepG2, 0.0277778 µM) 30%; (HepG2, 0.07 µM) 79% and 73%; (HepG2, 0.0833333 µM) 72%; (HepG2, 0.25 µM) 84%.
As for “RNA1{[moe](A)[sp].[moe](G)[sp].d(G)[sp].d(C)[sp].d(A)[sp].d(T)[sp].d(A)[sp].d(G)[sp].d(C)[sp].d(A)[sp].d(G)[sp].[moe](C)[sp].[moe](A)[sp].[moe](G)[sp].[moe](G)[sp].[moe](A)}$$$$V2.0”, the target mRNA inhibition (HepG2, 0.07 µM) was 57% and 51%.
On the same count and under the same terms, as for “RNA1{[moe](A)[sp].[moe](T)[sp].[moe](G)[sp].[moe](A)[sp].[moe](G)[sp].d(G)[sp].d(C)[sp].d(A)[sp].d(T)[sp].d(A)[sp].d(G)[sp].d(C)[sp].d(A)[sp].d(G)[sp].[moe](C)[sp].[moe](A)[sp].[moe](G)}$$$$V2.0”, the figure is 50% and 44%.
Take “RNA1{[moe](A)[sp].[moe](T)[sp].[moe](G)[sp].[moe](A)[sp].[moe](G)[sp].d(G)[sp].d(C)[sp].d(A)[sp].d(T)[sp].d(A)[sp].d(G)[sp].d(C)[sp].d(A)[sp].d(G)[sp].[moe](C)[sp].[moe](A)}$$$$V2.0”: the target mRNA inhibition (HepG2, 0.07 µM) is 52% and 56%.
Still for that read-out and setting: to “RNA1{[moe](A)[sp].[moe](T)[sp].[moe](G)[sp].d(A)[sp].d(G)[sp].d(G)[sp].d(C)[sp].d(A)[sp].d(T)[sp].d(A)[sp].d(G)[sp].d(C)[sp].[moe](A)[sp].[moe](G)[sp].[moe](C)[sp].[moe](A)}$$$$V2.0” belongs 53% and 44%.
“RNA1{[moe](A)[sp].[moe](T)[sp].[moe](T)[sp].[cEt](T)[sp].[cEt](A)[sp].d(T)[sp].d(G)[sp].d(C)[sp].d(C)[sp].d(T)[sp].d(A)[sp].d(C)[sp].[cEt](A)[sp].[cEt](G)[sp].[moe](C)[sp].[moe](C)[sp].[moe](T)}$$$$V2.0” returned a target mRNA inhibition (HepG2, 0.009375 µM) of 4%; a target mRNA inhibition (HepG2, 0.01875 µM) of 30%; a target mRNA inhibition (HepG2, 0.0375 µM) of 44%; a target mRNA inhibition (HepG2, 0.075 µM) of 52%; a target mRNA inhibition (HepG2, 0.15 µM) of 67%; a target mRNA inhibition (HepG2, 0.3 µM) of 76%.
On to “RNA1{[moe](A)[sp].[moe](T)[sp].[moe](T)[sp].[moe](T)[sp].[moe](A)[sp].d(T)[sp].d(G)[sp].d(C)[sp].d(C)[sp].d(T)[sp].d(A)[sp].d(C)[sp].d(A)[sp].d(G)[sp].[moe](C)[sp].[moe](C)}$$$$V2.0”, for which the target mRNA inhibition (HepG2, 0.07 µM) is 47% and 41%.
The same measure, in the same setting: to “RNA1{[moe](A)[sp].[moe](T)[sp].[moe](T)[sp].[moe](T)[sp].d(A)[sp].d(T)[sp].d(G)[sp].d(C)[sp].d(C)[sp].d(T)[sp].d(A)[sp].d(C)[sp].d(A)[sp].[moe](G)[sp].[moe](C)[sp].[moe](C)[sp].[moe](T)}$$$$V2.0” belongs 58% and 42%; to “RNA1{[moe](A)[sp].[moe](T)[sp].[moe](T)[sp].d(T)[sp].d(A)[sp].d(T)[sp].d(G)[sp].d(C)[sp].d(C)[sp].d(T)[sp].d(A)[sp].d(C)[sp].[moe](A)[sp].[moe](G)[sp].[moe](C)[sp].[moe](C)}$$$$V2.0”, 38% and 47%; to “RNA1{[moe](A)[sp].[moe](T)[sp].d(G)[sp].d(A)[sp].d(G)[sp].d(G)[sp].d(C)[sp].d(A)[sp].d(T)[sp].d(A)[sp].d(G)[sp].[moe](C)[sp].[moe](A)[sp].[moe](G)[sp].[moe](C)[sp].[moe](A)}$$$$V2.0”, 53% and 32%.
Regarding “RNA1{[moe](A)[sp].[moe](T)[sp].d(T)[sp].d(T)[sp].d(A)[sp].d(T)[sp].d(G)[sp].d(C)[sp].d(C)[sp].d(T)[sp].d(A)[sp].[moe](C)[sp].[moe](A)[sp].[moe](G)[sp].[moe](C)[sp].[moe](C)[sp].[moe](T)}$$$$V2.0”, the target mRNA inhibition is, setting by setting: (HepG2, 0.0092593 µM) 0%; (HepG2, 0.0277778 µM) 21%; (HepG2, 0.07 µM) 71% and 65%; (HepG2, 0.0833333 µM) 22%; (HepG2, 0.25 µM) 53%.
With “RNA1{[moe](A)[sp].[moe](T)[sp].d(T)[sp].d(T)[sp].d(A)[sp].d(T)[sp].d(G)[sp].d(C)[sp].d(C)[sp].d(T)[sp].d(A)[sp].[moe](C)[sp].[moe](A)[sp].[moe](G)[sp].[moe](C)[sp].[moe](C)}$$$$V2.0”, the target mRNA inhibition (HepG2, 0.07 µM) is 36% and 25%.
Still for that read-out and setting: to “RNA1{[moe](C)[sp].[cEt](A)[sp].[cEt](C)[sp].d(T)[sp].d(A)[sp].d(G)[sp].d(T)[sp].d(A)[sp].d(A)[sp].d(A)[sp].d(C)[sp].d(T)[sp].d(G)[sp].[cEt](A)[sp].[cEt](G)[sp].[moe](C)}$$$$V2.0” belongs 73% and 71%; to “RNA1{[moe](C)[sp].[cEt](A)[sp].[cEt](C)[sp].d(T)[sp].d(G)[sp].d(A)[sp].d(A)[sp].d(C)[sp].d(A)[sp].d(A)[sp].d(A)[sp].d(T)[sp].d(G)[sp].[cEt](G)[sp].[cEt](C)[sp].[moe](A)}$$$$V2.0”, 65% and 75%; to “RNA1{[moe](C)[sp].[cEt](A)[sp].[cEt](G)[sp].d(C)[sp].d(A)[sp].d(A)[sp].d(A)[sp].d(C)[sp].d(A)[sp].d(C)[sp].d(T)[sp].d(T)[sp].d(G)[sp].[cEt](G)[sp].[cEt](C)[sp].[moe](A)}$$$$V2.0”, 62% and 61%.
Still for that read-out and setting: to “RNA1{[moe](C)[sp].[cEt](C)[sp].d(A)[sp].d(A)[sp].d(T)[sp].d(T)[sp].d(T)[sp].d(A)[sp].d(T)[sp].d(G)[sp].d(C)[sp].d(C)[sp].[cEt](T)[sp].[moe](A)[sp].[cEt](C)[sp].[moe](A)}$$$$V2.0” belongs 37% and 55%; to “RNA1{[moe](C)[sp].[cEt](C)[sp].d(A)[sp].d(C)[sp].d(T)[sp].d(G)[sp].d(A)[sp].d(A)[sp].d(C)[sp].d(A)[sp].d(A)[sp].d(A)[sp].[cEt](T)[sp].[moe](G)[sp].[cEt](G)[sp].[moe](C)}$$$$V2.0”, 76% and 78%; to “RNA1{[moe](C)[sp].[cEt](G)[sp].d(A)[sp].d(A)[sp].d(C)[sp].d(C)[sp].d(A)[sp].d(C)[sp].d(T)[sp].d(G)[sp].d(A)[sp].d(A)[sp].[cEt](C)[sp].[moe](A)[sp].[cEt](A)[sp].[moe](A)}$$$$V2.0”, 45% and 49%.
